Read-outs that look alike come from different tables or passages of the source.
Columns and labels:
[1] = mouse pharmacokinetics, plasma and brain, I.P.; assay type: in vivo; conditions: for Kp / Cmax / Tmax / AUC(0-inf) / AUC(0-t): male, C57/BL6 J, ip; for Kp: brain/plasma, from AUCinfinity values
Description: Mice were euthanized from 30 min to 18 h after dosing. Blood samples were collected into heparinized tubes, centrifuged (10,000g × 2 min at 4 °C), and plasma collected and immediately stored at − 80 °C. The brain was rapidly excised on wet ice; a sample of cerebral hemisphere was then removed and immediately frozen to − 80 °C.

[2] = test system: LPS-induced cytokines (TNF-α, IL-6, IL-1β, KC/GRO, IL-10); experiment: systemic LPS challenge in mice, plasma and cerebral cortex cytokines; assay type: in vivo, mouse
Description: 8-week-old male C57/BL6 J mice (25–30 g; n = 28) were randomly assigned to five experimental groups. […] Rolipram, a discontinued PDE4 inhibitor, with known anti-inflammatory activity was used as a positive control. One hour later, animals were administered either LPS (3 mg/kg, serotype 0111:B4, Sigma Aldrich, in normal saline, 0.1 mL/10 g) or an alike volume of saline (without LPS) via the I.P. route. The LPS dose was selected from prior pilot studies to provide a substantial but sub-maximal rise in plasma pro-inflammatory cytokine levels, in line with our prior research. […] Four hours after LPS administration, animals were euthanized, and blood and brain tissue were collected and placed on wet ice. Plasma was quickly separated from blood by centrifugation (10,000g, 5 min, 4 °C), and together with a brain sample (cerebral cortex), were stored at − 80 °C. At a later time, cerebral cortex samples were sonicated in a TRIS-based lysis buffer (Mesoscale Discovery) with 3 × protease/phosphatase inhibitors (Halt™ Protease and Phosphatase Inhibitor Cocktail, Thermo Fisher Scientific, Waltham, MA, USA). Samples were then centrifuged (10,000g, 10 min, 4 °C) and protein concentrations were quantified by bicinchoninic acid assay (BCA, Thermo Fisher Scientific). Mouse plasma and cerebral cortex samples were analyzed by multi-pro-inflammatory cytokine ELISA (V-PLEX Pro-inflammatory Panel 1 Mouse Kit, Mesoscale Discovery) following the manufacturer’s protocol.

[3] = LPS-induced inflammation in IMG microglial cells (viability, nitrite, TNF-α); assay type: cell-based, mouse; conditions: mouse, IMG immortalized microglial cells, IMG, 0.6 to 60 μM, LPS 10 ng/mL, MTS, read-out: cellular viability
Description: (§1) IMG cell culture: Mouse immortalized microglial ‘IMG’ cells (Sigma-Aldrich; St. Louis, MO, USA; Cat # SCC-134, RRID:CVCL HC49) were cultured in High Glucose DMEM (Sigma Cat. No. D6546) with 10% heat-inactivated fetal bovine serum (Gibco™ Cat # 10082147), 1 × L-Glutamine (Sigma Cat # TMS-002-C) and 100 U/mL penicillin/streptomycin (Gibco™ Cat # 15140148). IMG cell subculturing was performed according to the product datasheet. In brief, cells were detached from culture plates with Accutase® (Sigma, Cat # A6964), collected, and centrifuged, with the cell pellet subsequently resuspended in media. The cells were then plated for experiments at specified densities and used for a maximum of 10 passages.
(§2) For cytokine/nitrite assessment studies, cells were grown in 24-well (40 K cells/well) tissue culture-treated plates in 500 μl of media. […] This LPS concentration induced a submaximal inflammatory response in IMG pilot studies. Following a 24 h incubation, conditioned media was collected and replaced with 500 μl fresh media to allow assessment of cell viability, TNF-α (ELISA MAX™ Deluxe Set Mouse TNF-α, BioLegend, CA, USA) and nitrite levels (Griess Reagent System, Promega, Madison, WI, USA), according to manufacturer’s instructions.

IMG cells = experiment: as above; assay type: cell-based, mouse; conditions: 24 h
Description: as §1, §2

[4] = human; cited from earlier work
[5] = 26.5 and 53 mg/kg I.P. 1 h before LPS 3 mg/kg, 4 h, p < 0.05 to < 0.0001
[6] = cerebral cortex, 26.5 and 53 mg/kg I.P., LPS 3 mg/kg, 4 h

Nc1cccc2c1C(=S)N(C1CCC(=O)NC1=O)C2=O (stereo not shown) [3-MP, 3-monothiopomalidomide]
AUCInf ([1]; brain, 2.65 mg/kg I.P.): 676.54 ng·h/g
AUCLast ([1]; brain, 2.65 mg/kg I.P.): 550.20 ng·h/g
AUCInf ([1]; brain, 26.5 mg/kg I.P.): 9052.48 ng·h/g
AUCLast ([1]; brain, 26.5 mg/kg I.P.): 8968.50 ng·h/g
Kp ([1]; 2.65 mg/kg, 2.65 mg/kg I.P., read-out: Brain/plasma ratio): 0.47
Kp ([1]; 2.65 mg/kg, across the two doses 26.47 and 2.65 mg/kg I.P., read-out: brain/plasma drug concentration ratio): 0.44 to 0.47
Kp ([1]; 26.5 mg/kg, 26.5 mg/kg I.P., read-out: Brain/plasma ratio): 0.44
Cmax ([1]; brain, 2.65 mg/kg I.P.): 454 ng/g
Tmax ([1]; brain, 2.65 mg/kg I.P.): 30 min
Cmax ([1]; brain, 26.5 mg/kg I.P.): 4230 ng/g
Tmax ([1]; brain, 26.5 mg/kg I.P.): 60 min
AUC(0-inf) ([1]; plasma, 2.65 mg/kg I.P.): 1440 ng·h/mL
AUC(0-t) ([1]; plasma, 2.65 mg/kg I.P.): 1410 ng·h/mL
Cmax ([1]; plasma, 2.65 mg/kg I.P.): 978 ng/mL
Tmax ([1]; plasma, 2.65 mg/kg I.P.): 30 min
AUC(0-inf) ([1]; plasma, 26.5 mg/kg I.P.): 20800 ng·h/mL
AUC(0-t) ([1]; plasma, 26.5 mg/kg I.P.): 20700 ng·h/mL
Cmax ([1]; plasma, 26.5 mg/kg I.P.): 9580 ng/mL
Tmax ([1]; plasma, 26.5 mg/kg I.P.): 60 min
LPS-mediated elevation in plasma IL-6 [2, 5]: lowered
LPS-mediated elevation in plasma TNF-α [2, 5]: lowered
LPS-induced brain IL-1β [2, 6]: dose-dependent reduction
LPS-induced brain IL-6 [2, 6]: dose-dependent reduction
LPS-induced brain KC/GRO [2, 6]: dose-dependent reduction
LPS-induced brain TNF-α [2, 6]: dose-dependent reduction
levels of the anti-inflammatory cytokine IL-10 ([2]; plasma and brain, 26.5 and 53 mg/kg I.P., compared to LPS treatment): unaffected
viability at 24 h [3]: > 90%
IMG cell viability (IMG cells; 100 μM, without LPS, vs vehicle control, MTS): reduced
concentration significantly reducing LPS-induced TNF-α (IMG cells; IMG, LPS 10 ng/mL, p < 0.001): ≥ 10 µM
concentration significantly reducing LPS-induced nitrite (IMG cells; IMG, LPS 10 ng/mL, p < 0.05): ≥ 30 µM
stability in ex vivo plasma and liver homogenate samples [4]: relatively stable
